Laboratory results published in the supplement of paper PMC10307832.

Tests used:
Test in all cases: relative viability (nuclei count vs DMSO), 5 days (fraction); higher = more cells survive
201T = system: 201T
In short: (§1)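 For relative viability, nuclei counts in treated wells were divided by those in vehicle wells. Lung cancer cell lines had been pin-tool dosed in 1536-well plates the day after seeding and cultured for 5 days, then fixed and stained in one step (final 0.05% Triton X-100, 1% formaldehyde, 1 ug/ml Hoechst) and imaged at 4×. Doses were one drug alone or a fixed anchor-drug dose plus five library-drug doses (not always all listed) in √10 steps, and values are duplicate-plate medians.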

A-427 = system: A-427
In short: as §1

BEN = system: BEN
In short: as §1

COR-L23 = system: COR-L23
In short: as §1

EKVX = system: EKVX
In short: as §1

HARA = system: HARA
In short: as §1

HCC-15 = system: HCC-15
In short: as §1

HCC-44 = system: HCC-44
In short: as §1

HCC-827 = system: HCC-827
In short: as §1

NCI-H1437 = system: NCI-H1437
In short: as §1

NCI-H1650 = system: NCI-H1650
In short: as §1

NCI-H1666 = system: NCI-H1666
In short: as §1

NCI-H1792 = system: NCI-H1792
In short: as §1

NCI-H1975 = system: NCI-H1975
In short: as §1

NCI-H2342 = system: NCI-H2342
In short: as §1

NCI-H23 = system: NCI-H23
In short: as §1

NCI-H358 = system: NCI-H358
In short: as §1

NCI-H441 = system: NCI-H441
In short: as §1

NCI-H596 = system: NCI-H596
In short: as §1

NCI-H650 = system: NCI-H650
In short: as §1

NCI-H838 = system: NCI-H838
In short: as §1

SK-MES-1 = system: SK-MES-1
In short: as §1

SW 900 = system: SW 900
In short: as §1

## O=c1cc(N2CCOCC2)oc2c(-c3cccc4c3sc3ccccc34)cccc12 + O=C(c1cc(Cc2n[nH]c(=O)c3ccccc23)ccc1F)N1CCN(C(=O)C2CC2)CC1 [Olaparib] (partner 8 µM)
201T; first compound 0.01 µM
  relative viability: 0.817
201T; first compound 0.03162 µM
  relative viability: 0.842
201T; first compound 0.1 µM
  relative viability: 0.86
201T; first compound 0.3162 µM
  relative viability: 0.815
201T; first compound 1 µM
  relative viability: 0.866
A-427; first compound 0.01 µM
  relative viability: 0.742
A-427; first compound 0.03162 µM
  relative viability: 0.706
A-427; first compound 0.1 µM
  relative viability: 0.737
A-427; first compound 0.3162 µM
  relative viability: 0.731
A-427; first compound 1 µM
  relative viability: 0.733
BEN; first compound 0.01 µM
  relative viability: 1.12
BEN; first compound 0.03162 µM
  relative viability: 1.21
BEN; first compound 0.1 µM
  relative viability: 1.21
BEN; first compound 0.3162 µM
  relative viability: 1.08
BEN; first compound 1 µM
  relative viability: 1.1
COR-L23; first compound 0.01 µM
  relative viability: 0.394
COR-L23; first compound 0.03162 µM
  relative viability: 0.352
COR-L23; first compound 0.1 µM
  relative viability: 0.327
COR-L23; first compound 0.3162 µM
  relative viability: 0.318
COR-L23; first compound 1 µM
  relative viability: 0.37
EKVX; first compound 0.01 µM
  relative viability: 0.769
EKVX; first compound 0.03162 µM
  relative viability: 0.807
EKVX; first compound 0.1 µM
  relative viability: 1.03
EKVX; first compound 0.3162 µM
  relative viability: 0.851
EKVX; first compound 1 µM
  relative viability: 0.891
HARA; first compound 0.01 µM
  relative viability: 0.762
HARA; first compound 0.03162 µM
  relative viability: 1.01
HARA; first compound 0.1 µM
  relative viability: 0.884
HARA; first compound 0.3162 µM
  relative viability: 0.972
HARA; first compound 1 µM
  relative viability: 0.792
HCC-15; first compound 0.01 µM
  relative viability: 0.692
HCC-15; first compound 0.03162 µM
  relative viability: 0.742
HCC-15; first compound 0.1 µM
  relative viability: 0.775
HCC-15; first compound 0.3162 µM
  relative viability: 0.74
HCC-15; first compound 1 µM
  relative viability: 0.735
HCC-44; first compound 0.01 µM
  relative viability: 1.01
HCC-44; first compound 0.03162 µM
  relative viability: 0.909
HCC-44; first compound 0.1 µM
  relative viability: 0.917
HCC-44; first compound 0.3162 µM
  relative viability: 0.973
HCC-44; first compound 1 µM
  relative viability: 0.987
HCC-827; first compound 0.01 µM
  relative viability: 0.695
HCC-827; first compound 0.03162 µM
  relative viability: 0.609
HCC-827; first compound 0.1 µM
  relative viability: 0.623
HCC-827; first compound 0.3162 µM
  relative viability: 0.641
HCC-827; first compound 1 µM
  relative viability: 0.642
NCI-H1437; first compound 0.01 µM
  relative viability: 0.606
NCI-H1437; first compound 0.03162 µM
  relative viability: 0.656
NCI-H1437; first compound 0.1 µM
  relative viability: 0.725
NCI-H1437; first compound 0.3162 µM
  relative viability: 0.656
NCI-H1437; first compound 1 µM
  relative viability: 0.613
NCI-H1650; first compound 0.01 µM
  relative viability: 0.667
NCI-H1650; first compound 0.03162 µM
  relative viability: 0.752
NCI-H1650; first compound 0.1 µM
  relative viability: 0.94
NCI-H1650; first compound 0.3162 µM
  relative viability: 0.739
NCI-H1650; first compound 1 µM
  relative viability: 0.624
NCI-H1666; first compound 0.01 µM
  relative viability: 0.753
NCI-H1666; first compound 0.03162 µM
  relative viability: 0.738
NCI-H1666; first compound 0.1 µM
  relative viability: 0.777
NCI-H1666; first compound 0.3162 µM
  relative viability: 0.684
NCI-H1666; first compound 1 µM
  relative viability: 0.692
NCI-H1792; first compound 0.01 µM
  relative viability: 0.445
NCI-H1792; first compound 0.03162 µM
  relative viability: 0.465
NCI-H1792; first compound 0.3162 µM
  relative viability: 0.403
NCI-H1792; first compound 1 µM
  relative viability: 0.405
NCI-H1975; first compound 0.01 µM
  relative viability: 0.834
NCI-H1975; first compound 0.03162 µM
  relative viability: 0.785
NCI-H1975; first compound 0.1 µM
  relative viability: 0.915
NCI-H1975; first compound 0.3162 µM
  relative viability: 0.82
NCI-H1975; first compound 1 µM
  relative viability: 0.809
NCI-H2342; first compound 0.01 µM
  relative viability: 0.418
NCI-H2342; first compound 0.03162 µM
  relative viability: 0.434
NCI-H2342; first compound 0.1 µM
  relative viability: 0.438
NCI-H2342; first compound 0.3162 µM
  relative viability: 0.457
NCI-H2342; first compound 1 µM
  relative viability: 0.428
NCI-H23; first compound 0.01 µM
  relative viability: 0.399
NCI-H23; first compound 0.03162 µM
  relative viability: 0.335
NCI-H23; first compound 0.3162 µM
  relative viability: 0.344
NCI-H23; first compound 1 µM
  relative viability: 0.343
NCI-H358; first compound 0.01 µM
  relative viability: 0.623
NCI-H358; first compound 0.03162 µM
  relative viability: 0.634
NCI-H358; first compound 0.1 µM
  relative viability: 0.721
NCI-H358; first compound 0.3162 µM
  relative viability: 0.553
NCI-H358; first compound 1 µM
  relative viability: 0.669
NCI-H441; first compound 0.01 µM
  relative viability: 0.485
NCI-H441; first compound 0.03162 µM
  relative viability: 0.48
NCI-H441; first compound 0.1 µM
  relative viability: 0.643
NCI-H441; first compound 0.3162 µM
  relative viability: 0.631
NCI-H441; first compound 1 µM
  relative viability: 0.585
NCI-H596; first compound 0.01 µM
  relative viability: 0.675
NCI-H596; first compound 0.03162 µM
  relative viability: 0.628
NCI-H596; first compound 0.1 µM
  relative viability: 0.735
NCI-H596; first compound 0.3162 µM
  relative viability: 0.683
NCI-H596; first compound 1 µM
  relative viability: 0.694
NCI-H650; first compound 0.01 µM
  relative viability: 0.424
NCI-H650; first compound 0.03162 µM
  relative viability: 0.38
NCI-H650; first compound 0.3162 µM
  relative viability: 0.381
NCI-H650; first compound 1 µM
  relative viability: 0.4
NCI-H838; first compound 0.01 µM
  relative viability: 0.753
NCI-H838; first compound 0.03162 µM
  relative viability: 0.775
NCI-H838; first compound 0.1 µM
  relative viability: 0.851
NCI-H838; first compound 0.3162 µM
  relative viability: 0.769
NCI-H838; first compound 1 µM
  relative viability: 0.749
SK-MES-1; first compound 0.01 µM
  relative viability: 0.68
SK-MES-1; first compound 0.03162 µM
  relative viability: 0.71
SK-MES-1; first compound 0.1 µM
  relative viability: 0.808
SK-MES-1; first compound 0.3162 µM
  relative viability: 0.598
SK-MES-1; first compound 1 µM
  relative viability: 0.634
SW 900; first compound 0.03162 µM
  relative viability: 0.918
SW 900; first compound 0.1 µM
  relative viability: 0.794
SW 900; first compound 0.3162 µM
  relative viability: 0.719
SW 900; first compound 1 µM
  relative viability: 0.572
